Series [1] deals with RAW264.7. Briefly: Antiinflammatory activity in mouse RAW264.7 cells assessed as inhibition of LPS-induced NO production after 24 hrs by Griess assay. Conditions: RAW264.7, 24 h. Format: functional, cell-based.
The subject of series [2] is RAW264.7. In words: Cytotoxicity against mouse RAW264.7 cells after 24 hrs by MTT assay. The series is classed as cell-based. Conditions: raw264.7, 24 h.

Bounds are passed on as bounds.

On to `O=c1cc(-c2ccc(O)cc2)oc2cc(O)ccc12`, for which, in the series with RAW264.7 [1], the IC50 was above 50 µM. Besides, the Activity result with RAW264.7 [2] was “Non-toxic”.
Turning to `CC(C)=CCc1cc([C@@H]2CC(=O)c3ccc(O)c(CC=C(C)C)c3O2)cc(CC=C(C)C)c1O`, the IC50 in the series with RAW264.7 [1] worked out at 28.1 µM. Also, in the series with RAW264.7 [2], the Activity entry is recorded as “Non-toxic”.
On to `C/C=C/C(=O)OC[C@H]1O[C@@H](Oc2ccc3c(c2)OC[C@H]2c4cc5c(cc4O[C@@H]32)OCO5)[C@H](O)[C@@H](O)[C@@H]1O`, for which the half-maximal inhibitory concentration (IC50) in the series with RAW264.7 [1] was 33 µM. The Activity entry with RAW264.7 [2] was “Non-toxic”.
`CC(C)=CCc1cc([C@@H]2CC(=O)c3ccc(O)c(CC=C(C)C)c3O2)cc2c1OC(C)(C)C=C2`: the IC50 with RAW264.7 [1] came to 13.6 µM. Further, in the series with RAW264.7 [2], the Activity entry is on record as “Non-toxic”.
As for `COc1cc([C@@H]2OC[C@@H]3[C@H]2CO[C@H]3c2ccc(O)c(OC)c2)ccc1O` [(+)-PINORESINOL], the IC50 with RAW264.7 [1] turned out to be 45.1 µM. In the series with RAW264.7 [2], the Activity entry is “Non-toxic”.
In the case of `COc1ccc(-c2coc3cc(O)ccc3c2=O)cc1O` [CALYCOSIN], the IC50 in the series on RAW264.7 [1] was above 50 µM. For the same molecule, the Activity entry in the series with RAW264.7 [2] is listed as “Non-toxic”.
For `O=c1c(-c2ccc(O)cc2)coc2cc(O)cc(O)c12` [GENISTEIN], in the series on RAW264.7 [1], the IC50 is above 50 µM. Besides, the Activity result in the series on RAW264.7 [2] is listed as “Non-toxic”.
On to `Oc1ccc2c(c1)OC[C@H]1c3cc4c(cc3O[C@@H]21)OCO4` [MAACKIAIN], for which the IC50 in the series on RAW264.7 [1] was found to be 27 µM. Further, the Activity result with RAW264.7 [2] is “Non-toxic”.
For the molecule `COc1cc([C@H]2OC[C@@H]3C(c4cc(OC)c(O)c(OC)c4)OC[C@H]23)ccc1O` (some centres not stated) [MEDIORESINOL], the IC50 in the series with RAW264.7 [1] stood at 41 µM. Moreover, in the series with RAW264.7 [2], the Activity result is recorded as “Non-toxic”.
Turning to `N=C(N)NN` [PIMAGEDINE], the IC50 in the series with RAW264.7 [1] was 18.7 µM. In the series on RAW264.7 [2], the Activity entry is on record as “Non-toxic”.
Regarding `COc1cc([C@H]2OC[C@H]3[C@@H]2CO[C@@H]3c2cc(OC)c(O)c(OC)c2)cc(OC)c1O` [SYRINGARESINOL], the IC50 in the series on RAW264.7 [1] is above 50 µM. In addition, the Activity result in the series with RAW264.7 [2] is reported as “Non-toxic”.
